In article PMC13124246 (European journal of medicinal chemistry, 2022):
Structures can show the parent of a compound that is named as a salt.

Tests used:
TbrCatL [1] = target: T1, TbrCatL (Trypanosoma brucei rhodesiense, UniProt Q95PM0); format: biochemical, T. brucei
cruzain = cruzain (Trypanosoma cruzi, UniProt P25779); assay: Cruzain enzymatic inhibition assay; format: biochemical; conditions: for competitive behavior against cruzain: compound at 1 and 0.25 μM, substrate 0.156–10 μM
[2] = test system: Mouse myoblasts cell line C2C12; assay: Host cell cytotoxicity; format: cell-based; conditions: mouse myoblasts vs T. cruzi, compounds tested up to 10 μM
cruzain or TbrCatL = assay: Screening of the Krake et al. compound set against cruzain and TbrCatL; format: biochemical; conditions: 100 μM
[3] = test system: T. cruzi Y strain parasites; conditions: in vitro; cited from earlier work
TbrCatL [4] = target: T1, TbrCatL; conditions: read-out: IC50 TbrCatL; cited from earlier work
cathepsins B (rat) = conditions: rat enzyme; cited from earlier work
cathepsins S (human) = conditions: human enzyme; cited from earlier work
macrophages = conditions: cited from earlier work

Chain of cruzain (P25779 123-337 limits assumed): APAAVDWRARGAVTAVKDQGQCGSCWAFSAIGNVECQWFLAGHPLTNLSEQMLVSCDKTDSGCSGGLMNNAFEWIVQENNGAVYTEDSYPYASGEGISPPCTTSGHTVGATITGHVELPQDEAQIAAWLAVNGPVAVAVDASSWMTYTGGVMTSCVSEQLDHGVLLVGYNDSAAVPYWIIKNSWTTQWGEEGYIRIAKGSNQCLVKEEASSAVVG

Question: Which results are given for `NC(=S)N/N=C/c1ccc(-c2ccc(Br)cc2Cl)o1` [Compound 45, 2-((5-(4-bromo-2-chlorophenyl)furan-2-yl)methylene)hydrazine-1-carbothioamide]?
Answer: effect of 0.1% Triton X-100 on IC50 against TbrCatL (TbrCatL [1]): reduced the compounds’ potencies; competitive behavior against cruzain (cruzain): did not observe competitive behavior; SI: selectivity index determined as CC50/EC50 [2]: > 370

Question: For `Clc1cc(Br)ccc1-c1ccc(CNCCN2CCOCC2)o1` [Compound 39, N-((5-(4-bromo-2-chlorophenyl)furan-2-yl)methyl)-2-morpholinoethan-1-amine dihydrochloride], which “SI: selectivity index determined as CC50/EC50” value (from here on “SI: selectivity index”) [2] is on record?
Answer: Its value is > 17.

Question: Which “average inhibition against cruzain or TbrCatL” value (cruzain or TbrCatL) does the source give for `CN(C)CCCNCc1ccc(-c2ccc(Cl)cc2Cl)o1` [Compound 9] here?
Answer: The value was “greater than 70%”.

Question: For `CN(C)CCCNCc1ccc(-c2ccc(Br)cc2)o1` [Compound 12], which “average inhibition against cruzain or TbrCatL” value (cruzain or TbrCatL) is on record?
Answer: Its value is “greater than 70%”.

Question: For `N/C(S)=N/N=C/c1ccc(-c2ccc(Cl)cc2)o1` [Compound 44, 2-((5-(4-chlorophenyl)furan-2-yl)methylene)hydrazine-1-carbothioamide], which “effect of 0.1% Triton X-100 on IC50 against TbrCatL” value (TbrCatL [1]) is on record?
Answer: The value was “reduced the compounds’ potencies”.

Question: And the “IC50 against cruzain relative to IC50 against TbrCatL (fold higher)” value (cruzain; Table 2 values)?
Answer: Its value is “up to 25 fold”.

Question: And the “competitive behavior against cruzain” value (cruzain)?
Answer: Its value is “did not observe competitive behavior”.

Question: And the “SI: selectivity index” value [2]?
Answer: Its value is > 18.

Question: For `O=C(Cn1ccnc1[N+](=O)[O-])NCc1ccccc1` [Benznidazole], which “SI: selectivity index” value [2] is on record?
Answer: The value was > 9.

Question: What does the source list for `Clc1cc(Br)ccc1-c1ccc(CNCC2CCNCC2)o1` [MB12, 1-(5-(4-bromo-2-chlorophenyl)furan-2-yl)-N-(piperidin-4-ylmethyl)methanamine]?
Answer: replication of T. cruzi Y strain parasites and release from macrophages [3]: decreased the replication; IC50 (TbrCatL [4]): 50 µM; inhibition of cathepsin B (cathepsins B (rat)): did not inhibit; inhibition of cathepsin S (cathepsins S (human)): did not inhibit; cytotoxicity by lactate dehydrogenase release (macrophages): no significant cytotoxicity
